Reference: patent publication US9464073B2, “Pyrimidine hydroxy amide compounds as HDAC6 selective inhibitors” (Acetylon Pharmaceuticals, Inc., priority 2014, dated 2016)
pIC50: −log10 of the molar value. “Also recorded” adds a separate entry of the source.

Tests used:
HDAC1 = HDAC1 (Homo sapiens (Human), UniProt Q13547); experiment: HDAC enzyme assay (HDAC1); format: biochemical
Protocol: (§1) Compounds for testing were diluted in DMSO to 50 fold the final concentration and a ten point three fold dilution series was made. The compounds were diluted in assay buffer (50 mM HEPES, pH 7.4, 100 mM KCl, 0.001% Tween-20, 0.05% BSA, 20 μM TCEP) to 6 fold their final concentration. The HDAC enzymes (purchased from BPS Biosciences) were diluted to 1.5 fold their final concentration in assay buffer. The tripeptide substrate and trypsin at 0.05 μM final concentration were diluted in assay buffer at 6 fold their final concentration. The final enzyme concentrations used in these assays were 3.3 ng/ml (HDAC1), 0.2 ng/ml (HDAC2), 0.08 ng/ml (HDAC3) and 2 ng/ml (HDAC6). The final substrate concentrations used were 16 μM (HDAC1), 10 μM (HDAC2), 17 μM (HDAC3) and 14 μM (HDAC6).
(§2) Five μl of compounds and 20 μl of enzyme were added to wells of a black, opaque 384 well plate in duplicate. Enzyme and compound were incubated together at room temperature for 10 minutes. Five μl of substrate was added to each well, the plate was shaken for 60 seconds and placed into a Victor 2 microtiter plate reader. The development of fluorescence was monitored for 60 min and the linear rate of the reaction was calculated. The IC50 was determined using Graph Pad Prism by a four parameter curve fit.

HDAC6 = HDAC6 (Homo sapiens (Human), UniProt Q9UBN7); experiment: HDAC enzyme assay (HDAC6); format: biochemical
Chain of HDAC6 (Q9UBN7 whole entry): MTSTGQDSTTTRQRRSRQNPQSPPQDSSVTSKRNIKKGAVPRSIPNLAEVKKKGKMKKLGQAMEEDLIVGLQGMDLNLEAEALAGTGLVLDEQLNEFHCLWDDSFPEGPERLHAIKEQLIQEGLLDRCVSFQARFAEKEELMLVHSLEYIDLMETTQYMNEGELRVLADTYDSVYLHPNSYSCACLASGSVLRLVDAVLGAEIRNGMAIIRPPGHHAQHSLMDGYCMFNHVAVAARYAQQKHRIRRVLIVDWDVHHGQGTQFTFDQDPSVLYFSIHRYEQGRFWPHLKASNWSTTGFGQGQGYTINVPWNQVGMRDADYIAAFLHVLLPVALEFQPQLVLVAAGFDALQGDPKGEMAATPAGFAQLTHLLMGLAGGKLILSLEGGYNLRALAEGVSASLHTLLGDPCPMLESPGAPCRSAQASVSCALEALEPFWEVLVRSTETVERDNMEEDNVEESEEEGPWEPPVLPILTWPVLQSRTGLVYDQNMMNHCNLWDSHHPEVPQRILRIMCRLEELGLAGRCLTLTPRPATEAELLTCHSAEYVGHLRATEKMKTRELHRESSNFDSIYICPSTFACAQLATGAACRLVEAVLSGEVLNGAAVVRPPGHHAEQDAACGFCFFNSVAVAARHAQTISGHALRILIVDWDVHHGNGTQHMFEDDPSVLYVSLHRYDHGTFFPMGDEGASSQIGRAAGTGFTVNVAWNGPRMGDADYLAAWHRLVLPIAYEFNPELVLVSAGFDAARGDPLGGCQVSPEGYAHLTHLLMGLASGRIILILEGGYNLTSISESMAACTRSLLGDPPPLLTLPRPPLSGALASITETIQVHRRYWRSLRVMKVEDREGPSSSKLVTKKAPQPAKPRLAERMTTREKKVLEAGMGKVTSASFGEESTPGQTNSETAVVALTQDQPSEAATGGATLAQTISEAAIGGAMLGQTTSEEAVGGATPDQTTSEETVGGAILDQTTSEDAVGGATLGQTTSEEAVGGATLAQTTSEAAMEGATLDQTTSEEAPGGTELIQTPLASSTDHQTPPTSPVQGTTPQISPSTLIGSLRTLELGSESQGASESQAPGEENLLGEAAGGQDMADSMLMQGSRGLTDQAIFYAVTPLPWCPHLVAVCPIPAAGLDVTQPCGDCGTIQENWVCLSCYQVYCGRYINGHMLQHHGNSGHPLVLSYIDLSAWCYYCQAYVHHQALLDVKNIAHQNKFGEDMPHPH
Protocol: as §1, §2

[1] = Rat pharmacokinetic studies; format: in vivo; details: plasma, male SD rats; for clearance: IV 1 mg/kg; for bioavailability: PO 5 mg/kg vs IV 1 mg/kg, dose adjusted AUC
Protocol: Male SD rats were fasted overnight. Compounds of the invention as well as two previously known HDAC6 inhibitors, Compounds A and B were dissolved in dimethyl acetamide at 10 times the final concentration, then Solutol HS 15 (BASF) was added to a final concentration of 10%. Finally 80% saline was added and vortexed to achieve a clear solution. For the IV dosing three animals were injected via the foot dorsal vein with 1 mg/kg compound. For the PO dosing 5 mg/kg of compound was delivered by oral gavage. Blood was collected via the tail vein into K2EDTA tubes at 5 minutes, 15 minutes, 30 minutes, 1 hour, 2 hours, 4 hours, 8 hours and 24 hours after dosing. The blood was centrifuged at 2000 g for 5 minutes at 4° C. to obtain plasma. The plasma was extracted with acetonitrile and the level of compound was analyzed by LC/MS/MS. The level of compound in plasma was calculated from a standard curve in rat plasma. The IV clearance and area under the curve were calculated using WinNonLin software. The dose adjusted area under the curve for the IV and oral dosing were used to calculate the oral bioavailability. Compounds A and B, previously known HDAC6 inhibitors, are shown below (See, e.g., U.S. Pat. No. 8,614,223): […]

HDAC3 = HDAC3 (Homo sapiens (Human), UniProt O15379); experiment: HDAC enzyme assay (HDAC3); format: biochemical
Chain of HDAC3 (O15379 whole entry): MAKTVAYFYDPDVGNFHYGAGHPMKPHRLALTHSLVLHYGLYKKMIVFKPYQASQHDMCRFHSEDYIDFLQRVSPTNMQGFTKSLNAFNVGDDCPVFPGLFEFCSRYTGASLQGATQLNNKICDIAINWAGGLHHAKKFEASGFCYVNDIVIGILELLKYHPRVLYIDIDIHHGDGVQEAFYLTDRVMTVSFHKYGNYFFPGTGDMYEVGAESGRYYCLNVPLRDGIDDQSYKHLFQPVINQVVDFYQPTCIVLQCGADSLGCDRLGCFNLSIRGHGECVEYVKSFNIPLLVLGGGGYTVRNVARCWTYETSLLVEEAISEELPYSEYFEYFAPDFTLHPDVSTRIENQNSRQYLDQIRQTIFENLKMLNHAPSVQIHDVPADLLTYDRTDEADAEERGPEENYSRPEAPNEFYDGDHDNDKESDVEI
Chain of HDAC3 (Q9Y618 395-489 partner): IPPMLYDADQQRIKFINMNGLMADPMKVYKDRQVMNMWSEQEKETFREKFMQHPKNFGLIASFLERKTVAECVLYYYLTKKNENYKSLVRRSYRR
Protocol: as §1, §2

[2] = Mouse pharmacokinetic studies; format: in vivo; details: male C57BL/6 mice, IV 1 mg/kg, from AUC in plasma and brain; for Kp: mouse, read-out: Mouse plasma/brain ratio
Protocol: Male C57BL/6 mice were fasted overnight. Compounds of the invention as well as two previously known HDAC6 inhibitors, Compounds A and B, were dissolved in dimethyl acetamide at 10 times the final concentration, then Solutol HS 15 (BASF) was added to a final concentration of 10%. Finally 80% saline was added and vortexed to achieve a clear solution. Fifteen animals were injected via the tail vein with 1 mg/kg compound. Blood was collected by retro-orbital bleed at 5 minutes, 15 minutes, 30 minutes, 1 hour, 2 hours, 4 hours, 8 hours and 24 hours after dosing. At 5 minutes, 30 minutes, 1 hour and 4 hours after dosing three animals per time point were sacrificed and brains were removed. The blood was centrifuged at 2000 g for 5 minutes at 4° C. to obtain plasma. Brain samples were homogenized in PBS. The plasma and brain homogenate were extracted with acetonitrile and the level of compound was analyzed by LC/MS/MS. The level of compound in plasma was calculated from a standard curve in rat plasma and the level in brain was calculated from a standard curve in brain homogenate. The area under the curve in plasma and brain were calculated using WinNonLin software. The brain to plasma ratio was determined using the area under the curve values for the two compartments.

HDAC2 = HDAC2 (Homo sapiens (Human), UniProt Q92769); experiment: HDAC enzyme assay (HDAC2); format: biochemical
Chain of HDAC2 (Q92769 whole entry): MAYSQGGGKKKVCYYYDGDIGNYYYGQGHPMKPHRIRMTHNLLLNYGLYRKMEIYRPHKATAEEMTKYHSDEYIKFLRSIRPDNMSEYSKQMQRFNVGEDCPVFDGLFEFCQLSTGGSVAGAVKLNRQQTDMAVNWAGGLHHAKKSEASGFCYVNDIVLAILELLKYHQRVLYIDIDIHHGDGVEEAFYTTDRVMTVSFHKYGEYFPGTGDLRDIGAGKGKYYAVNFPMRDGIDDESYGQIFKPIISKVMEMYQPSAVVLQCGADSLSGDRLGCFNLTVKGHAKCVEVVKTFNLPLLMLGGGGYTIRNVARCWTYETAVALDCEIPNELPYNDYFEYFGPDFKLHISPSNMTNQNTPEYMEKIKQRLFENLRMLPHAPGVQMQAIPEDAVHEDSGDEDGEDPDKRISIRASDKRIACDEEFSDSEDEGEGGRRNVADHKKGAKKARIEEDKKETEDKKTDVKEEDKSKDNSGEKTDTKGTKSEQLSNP
Protocol: as §1, §2

taxol treated rats = experiment: Taxol induced neuropathic pain study in rats (Von Frey testing); format: in vivo, rat
Protocol: This study included a histology endpoint in addition to the von Frey testing for paw sensitivity.
Neuropathic pain is induced by a 0.5 ml/kg injection of Taxol (2 mg/kg) administered IP on days 0-12. The development of neuropathic pain is confirmed by measuring mechanical allodynia (Von Frey test) on study day 13.
Allodynic response to tactile stimulation is assessed using the Von Frey apparatus (Touch Test®).
The rat will be placed in an enclosure and positioned on a metal mesh surface, but allowed to move freely. The rats' cabins are covered with red cellophane to diminish environmental disturbances. The test begins after a cessation of exploratory behavior. The set of Von Frey monofilaments provide an approximate logarithmic scale of actual force and a linear scale of perceived intensity.
The operating principle: when the tip of a fiber of given length and diameter is pressed against the skin at right angles, the force of application increases as long as the researcher continues to advance the probe until the fiber bends. After the fiber bends, the probe continues to advance, causing the fiber to bend more, but without additional force being applied. […] The Touch Test™ Sensory Evaluator can be used on the plantar surfaces of the rat's foot. The animal indicates sensation by pulling back its paw. The minimal force needed to elevate the withdrawal reflex is considered/designated as the value of reference. In order to achieve paw withdrawal, the pressure applied is sometimes greater than 60 g, often requiring the researcher to apply enough pressure with the Von Frey filament to actually lift the paw of the naive animal. Decreases in force needed to induce withdrawal are indicative of allodynia, as the force applied is a non-painful stimulus under normal conditions.

Chain of HDAC1 (Q13547 whole entry): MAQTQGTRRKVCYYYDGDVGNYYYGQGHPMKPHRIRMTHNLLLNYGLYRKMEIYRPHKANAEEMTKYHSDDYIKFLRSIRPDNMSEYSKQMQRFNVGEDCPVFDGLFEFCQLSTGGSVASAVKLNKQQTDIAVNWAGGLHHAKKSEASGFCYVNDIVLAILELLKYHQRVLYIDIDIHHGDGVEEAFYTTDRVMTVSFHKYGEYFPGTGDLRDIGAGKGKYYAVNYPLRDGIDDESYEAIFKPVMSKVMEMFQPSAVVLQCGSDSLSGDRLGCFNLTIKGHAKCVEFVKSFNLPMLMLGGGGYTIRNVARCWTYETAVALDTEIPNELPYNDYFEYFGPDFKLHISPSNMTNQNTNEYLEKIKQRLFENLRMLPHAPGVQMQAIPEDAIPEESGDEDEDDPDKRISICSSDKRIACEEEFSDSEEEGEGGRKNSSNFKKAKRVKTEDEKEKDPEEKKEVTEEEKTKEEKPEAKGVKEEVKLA

SMILES | pIC50 (HDAC1) | pIC50 (HDAC6) | clearance [1] [mL/min/kg] | bioavailability [1] [%] | pIC50 (HDAC3) | Kp [2] | pIC50 (HDAC2) | withdrawal force (Von Frey) (taxol treated rats; 1 mg/kg PO b.i.d., study day 15) [g] | mean group withdrawal force (Von Frey) (taxol treated rats; study day 13 pre-dosing, last dose on day 12 (b.i.d.)) [g] | reversal of nociception / tactile allodynia (taxol treated rats; taxol treated rats, 1, 3, 10 mg/kg PO b.i.d.) | Mouse plasma/brain ratio [2] | withdrawal force (Von Frey) (taxol treated rats; 150 mg/kg IP, 2 hours post dosing, study day 13) [g] | withdrawal force (Von Frey) (taxol treated rats; 150 mg/kg IP, 2 hours post dosing, study day 14) [g] | withdrawal force (Von Frey) (taxol treated rats; 150 mg/kg IP, 2 hours post dosing, study day 15) [g]
O=C(NO)c1cnc(NC2(c3cc(F)cc(F)c3)CCCCC2)nc1 [Compound 001] | 5.98 | 8.54 | 91.7 | 11.1 | 5.21 | 2.55 | 6.06 | – | – | – | – | – | – | –
O=C(NO)c1cnc(NC2(c3cc(F)ccc3F)CCOCC2)nc1 [Compound 002] | 6.93 | 8.62 | 93.3 | 18.4 | 6.17 | 0.45 | 6.97 | – | – | – | – | – | – | –
O=C(NO)c1cnc(NC2(c3ccccc3)CCC(F)(F)CC2)nc1 [Compound 003] | 6.02 | 8.43 | 61.7 | 41.5 | 5.36 | 0.67 | 6.01 | 58.30 ± 1.70 | 41.10 ± 5.88 | completely reversed nociception; also recorded: reduced tactile allodynia | – | – | – | –
O=C(NO)c1cnc(NC2(c3cccc(F)c3)CCC3(CC2)OCCO3)nc1 [Compound 004] | 6.15 | 8.41 | – | – | 5.74 | – | 6.08 | – | – | – | – | – | – | –
O=C(NO)c1cnc(NC2(c3ccccc3)CC2)nc1 [Compound A, reference compound] | – | – | 100 | 16.5 | – | – | – | – | – | – | 1.23 | – | – | –
O=C(NO)c1cnc(NC2(c3cccc(F)c3)CCCCC2)nc1 [Compound B, reference compound] | – | – | 38.3 | 7.9 | – | – | – | – | – | – | 1.28 | – | – | –
NCC1(CC(=O)O)CCCCC1 [gabapentin, reference compound] | – | – | – | – | – | – | – | – | – | – | – | 58.30 ± 1.70 | 60.00 ± 0.00 | 58.30 ± 1.70
